The results in this text go back to patent publication EP0090736A1, “Steroidal nitroso ureum with oncostatic activity, process for its preparation and its use as a medicine” (Etablissement Public dit: CENTRE NATIONAL DE LA RECHERCHE …, priority 1982, dated 1983).

SMILES strings stand for the structures.

The LD50 is the dose at which mortality reaches 50%.

In one data set the test system is leucémie L1210. The experiment in a line: Oncostatic activity on L1210 leukemia in mice (survival T/C). It is filed as in vivo, souris (DBA2 - C57BL 100). The conditions noted are these: for Dose optimale: L1210 leukemia, 10^5 cells i.p., treatment on days 1, 5 and 9, suspension in olive oil. An excerpt: Le composé selon la présente invention a été étudié sur la leucémie L1210 en comparaison avec d'autres nitrosourées présentant également des propriétés oncostatiques. Il s'agit essentiellement de la BCNU, la CCNU, la Me CCNU, la RFCNU, la RPCNU et la Chlorozotocine. Ces composés, ainsi que le XPCNU, sont bien connus et décrits par exemple dans Biomedicine Express, vol. 23, n° 10 du 10 décembre 1975, pages 410-413.
Pour chaque composé, 10^5 cellules leucémiques ont été inoculées à 80 souris (DBA2 - C57BL 100), par voie intrapéritonéale.
Les traitements ont débuté un jour après la transplantation et ont été poursuivis les cinquième et neuvième jours. Les dérivés devant être testés sont administrés en suspension dans l'huile d'olive à 70 souris. Les doses injectées sont variables, chaque souris étant pesée individuellement. Les 10 souris restantes constituent le groupe témoin et reçoivent, en placébo, des volumes équivalents d'huile d'olive.
Le premier jour, les nitrosourées testées sont administrées, en doses variables, aux souris traitées.
Les cinquième et neuvième jours, les injections sont renouvelées sans signe macroscopique de toxicité.
Pour chaque composé, les activités oncostatiques ont été déterminées pour une dose spécifique et varient en fonction de la quantité administrée. Lorsque l'activité oncostatique est supérieure à 125 et si la différence des groupes témoins et traités à une signification statistique (test de WILCOXON), le composé est considéré comme étant actif à la dose utilisée.
La figure ci-annexée indique en fonction des doses de principe actif appliquées en milligramme par kilogramme le rapport T/C défini comme suit : T/C = moyenne de survie des groupes traités / moyenne de survie des groupes témoins x 100
La mention ∞ indique que plus de 50 % des animaux traités sont guéris.

Another data set in a line: Acute toxicity (DL50). It is filed as in vivo. Here is the method: On a, en outre, indiqué ci-après dans le tableau pour les composés connus et pour le composé selon la présente invention les MEDI, c'est-à-dire les doses médianes, les doses optimums les DL50 et par là l'index thérapeutique de ces composés.
On constate qu'à l'activité déterminée précédemment s'ajoute la dose médiane la plus grande jamais observée et une DL50 aiguë de 700 mg/kg qui est la plus avantageuse parmi toutes les autres nitrosourées, ce qui conduit à l'indice thérapeutique le plus élevé jamais obtenu jusqu'à présent pour ce type de composé oncostatique.

The mark [1] stands for this setting: derived from DL50 and optimal dose on L1210.

On to `O=NN(CCCl)C(=O)N[C@H]1C(O)O[C@H](CO)[C@@H](O)[C@@H]1O` (some centres unmarked) [CZT, Chlorozotocine], for which the Dose optimale in the data set on leucémie L1210 turned out to be 15 mg/kg. This molecule also yielded a DL50 in the data set “Acute toxicity (DL50)” (acute DL50) of 35 mg/kg. Moreover, the “Index thérapeutique” value in “Acute toxicity (DL50)” (setting [1]) is 2,33.
Take `C[C@]12CC[C@H]3[C@@H](CC=C4C[C@@H](O)CC[C@@]43C)[C@@H]1CC[C@@H]2NC(=O)N(CCCl)N=O` [Composé ex. 1, 17β-(N-2-chloroéthyl-N'-nitrosouréyl)-5-androsten-3β-ol]: the Dose optimale in the data set with leucémie L1210 is reported as 125 mg/kg. Also, in the data set on leucémie L1210 (T/C = mean survival treated / mean survival controls x 100, as a function of dose (figure), compared with other nitrosoureas), the “activité oncostatique (T/C)” value is “la meilleure activité oncostatique”. Besides, the LD50 in “Acute toxicity (DL50)” (in vivo, acute DL50) came to 700 mg/kg. In addition, in the data set “Acute toxicity (DL50)” (mouse, in vivo, derived from DL50 and optimal dose on L1210, read-out: Index thérapeutique), the selectivity ratio turned out to be 5.6.
`CC1(C)O[C@@H]2[C@@H](COC(=O)c3ccc([N+](=O)[O-])cc3)OC(NC(=O)N(CCCl)N=O)[C@@H]2O1` (some centres unmarked) [RFCNU] came in with a Dose optimale with leucémie L1210 of 20 mg/kg. In “Acute toxicity (DL50)” (acute DL50), this molecule displayed a DL50 of 90 mg/kg. In addition, the “Index thérapeutique” value in the data set “Acute toxicity (DL50)” (setting [1]) is 4,5.
`CC(=O)O[C@@H]1[C@H](OC(C)=O)COC(NC(=O)N(CCCl)N=O)[C@@H]1OC(C)=O` (some centres unmarked) [RPCNU]: the Dose optimale in the data set on leucémie L1210 is 15 mg/kg. The same molecule came in with a DL50 in the data set “Acute toxicity (DL50)” (acute DL50) of 50 mg/kg. In addition, the “Index thérapeutique” value in the data set “Acute toxicity (DL50)” (setting [1]) was 3,3.
In the case of `CC(=O)OC1COC(NC(=O)N(CCCl)N=O)C(OC(C)=O)C1OC(C)=O` (centres unmarked) [XPCNU], the Dose optimale with leucémie L1210 is 15 mg/kg.
